Literature values in US12644083B2, “Dual circulation microphysiological system” (CN Bio Innovations Limited, priority 2019, dated 2026).

Test system: primary human hepatocytes
Details: for rate of metabolism (in words): general statement: considered to be slowly metabolised; for test phase required to give measurable changes (metabolism): single loop 3D liver scaffold system

rate of metabolism (in words) | test phase required to give measurable changes (metabolism) | SMILES
slowly metabolised | 5 days | CC(C)N(CCC(C(N)=O)(c1ccccc1)c1ccccn1)C(C)C (stereo not shown) [disopyramide]
slowly metabolised | 5 days | CC(C)(C)NC[C@H](O)COc1nsnc1N1CCOCC1 [timolol]
